Measurements: a melting point compilation (Tetko et al.; mined from patent text by program, amines drawn as free bases though some values may be those of a salt)

| SMILES | melting point [°C] |
| --- | --- |
| CN(C)NC(=O)C1(N2C(=O)c3cccc(Cl)c3C2=O)CCCCC1 | 184 to 185 |
| Cc1cc(NCCO)c2nn(-c3ccccc3)c(C)c2n1 | 159 to 161 |
| NCC1CCCN(c2ncc3ncnc(Nc4ccc(F)c(Cl)c4)c3n2)C1 (stereo unspecified) | 132 to 137 |
| CCC(C)(N)Cc1c[nH]c2ccccc12 (stereo unspecified) | 112 |
| Sc1nccn1Cc1ccsc1 | 130 to 131 |
| CC(=O)Nc1ccc(O[C@@H]2CNC[C@H]2O)cc1 (relative stereo) | 200 |
| N#CCN1C(=O)COc2cc(F)c(N3C(=O)C4=C(CCCC4)C3=O)cc21 | 216 to 220 |
| COc1ccnc(CN2C(=O)C(NC(=O)Nc3cccc(C)c3)N=C(c3ccccc3F)c3ccccc32)c1 (stereo unspecified) | 195 to 200 |
| CN1C(=O)C(C#N)(c2ccc(OCC3CO3)cc2)Sc2ccccc21 (stereo unspecified) | 136 to 139 |
| COc1ccc2ccccc2c1C1C(CC(=O)O)CC(=O)N1c1ccccc1 (stereo unspecified) | 198 to 203 |
| CCOC(=O)C(C)=NNc1ccc(F)cc1F | 153 to 156 |
| CC(C)C1=NC2=NC(SCc3ccccc3)(SCc3ccccc3)NN2C=C1 | 65 to 66 |
| O=C1CC2(CCNCC2)c2cc(Br)ccc2N1 | 218 |
| O=C(O)c1cc(Cl)ccc1SSc1ccc(Cl)cc1C(=O)O | 320 to 324 |
| O=S(=O)(c1ccc(Nc2nccc(-c3ccc(C(F)(F)F)cc3)n2)cc1)N1CCOCC1 | 240 to 241 |
| c1ccc(N(Cc2cccc3ccccc23)c2ccccc2)cc1 | 170 to 172 |
| CCN1CN(C)C(=S)N(c2cc(Cl)ccc2C)C1 | 93 to 95 |
| N#CCCN(N)c1cc2ccccc2[nH]1 | 120 to 122 |
| CN(C(=O)c1ccc2nonc2c1)C1CCOC(O)C1 (stereo unspecified) | < 90 |
| CCOC(=O)c1c(SC)nn(-c2c(Cl)cc(Cl)cc2Cl)c1C | 95 to 98 |
| CC(C)(C)N1CC(c2ccc([N+](=O)[O-])cc2)OC1=O (stereo unspecified) | 123 to 125 |

| SMILES | melting point [°C] |
| --- | --- |
| COC(=O)c1n[nH]c(C(C)C)c1[N+](=O)[O-] | 78 to 80 |
| Cc1ccc(S(=O)(=O)Nc2cccc3c2Nc2ccc(O)cc2CO3)s1 | 184 to 188 |
| O=C(C=NO)Nc1cc(Cl)cc(Cl)c1 | 196 to 197 |
| CCOC(=O)C(NC(=O)CNC=O)C(=O)OCC | 95 to 96 |
| Clc1cc(CBr)c2noc(-c3ccccc3)c2c1 | 142 to 144 |
| CC(=O)NCC1CN(c2ccc(N3CC4CCCN(C(=O)OCc5ccccc5)C4C3)c(F)c2)C(=O)O1 (stereo unspecified) | 74 to 76 |
| OC(CNCCc1cc(Br)sc1Br)c1ccccc1 (stereo unspecified) | 94 |
| CN1CC(CN2CC(=O)NC2=O)CC2c3cccc4[nH]cc(c34)CC21 (stereo unspecified) | 199 to 201 |
| CCOP(=O)(OCC)C(O)c1ccccc1 (stereo unspecified) | 83 to 83.5 |
| COc1cc2c(cc1O)CN(C(C)=O)CC2 | 142 to 144 |
| C=C(C)CN1C(=O)CC(=O)N(c2ccccc2)c2cc(Cl)ccc21 | 149 to 151 |
| O=C(CCCCCBr)c1ccccc1 | 35 to 36 |
| O=Cc1csc2ccc(O)cc12 | 200 |
| O=CNc1ccc(Cl)cc1C(=O)c1ccccc1Cl | 106 to 107 |
| N#Cc1c(Cl)c2ccccc2[nH]c1=O | > 250 |
| CCOC(=O)C1=C(C)N=C(SCc2ccc(OC)cc2)N(C(=O)OCC)C1c1cccc(OC)c1 (stereo unspecified) | 79 to 81 |
| O=C(Nc1cccc(-c2c(-c3ccccc3C(F)(F)F)cnc3c(C(F)(F)F)cccc23)c1)Nc1ccccc1Cl | 230 to 232 |
| CN(Cc1cccs1)C(=O)C1(c2ccc(F)cc2)CCCC1 | 72 to 75 |
| CC1(C)CCC(C)(C)c2cc(-c3nnc(-c4ccc(C(N)=O)cc4)o3)ccc21 | 272 to 274 |
| O=C(CCc1ccccc1)N[C@H]1CCCN2CCC[C@@H](C(=O)O)N2C1=O | 198 to 202 |

Now from value to compound:

| melting point [°C] | SMILES |
| --- | --- |
| 164 | COc1cc(/C=C2/C(C)=C(CC(=O)O)c3cc(F)ccc32)cc(Br)c1OC |
| 186 to 190 | Cc1nc2cccc(OCC(C)(C)NC(=O)C3CCC3)c2c(N)c1C(=O)O |
| 178 to 180 | CCCCc1nc2cccc(C(=O)O)c2n1Cc1ccc(-c2ccccc2-c2nc(=S)o[nH]2)cc1 |
| 125 | CO/C=C(\Oc1cc(C#C[Si](C)(C)C)ccc1C)C(=O)OC |
| 187 | CC(C)c1ncc(O)c(O)n1 |
| 166 | COc1cc(C(=O)NC=NC(=O)ON(c2ccc(C)c(NC(=O)c3ccc(C=Cc4ccccc4)cc3)c2)C(C)(C)C)cc(OC)c1OC |
| 198 | Nc1c(Cl)cc(-c2nn(C3CCN(Cc4ccc(C(F)(F)F)cc4)CC3)c(=O)o2)c2c1OCCO2 |
| > 250 | CCOC(=O)c1cn2c3c(c(-c4ccc(S(N)(=O)=O)cc4)c(F)cc3c1=O)OCC2C (stereo unspecified) |
| 141 to 143 | CS(=O)(=O)c1ccc(N2CC=C(N3CCCC3)CC2)cc1 |
| 182 to 183 | CC(C)NC(=O)c1c(NC(=O)c2cc(C(F)(F)F)nn2-c2ncccc2Cl)ccc2ncccc12 |
| 145 to 147 | CC(C)(C)C(O)C(Oc1ccc(Cl)cc1)n1ccnc1 (stereo unspecified) |
| 51 to 53 | C#CCCN1CCC(O)(Cc2ccccc2)CC1 |
| 229 to 230 | O=C(C1CCN(S(=O)(=O)c2ccc3cc(Br)ccc3c2)CC1)N1CCN(c2ccncc2)CC1 |
| 86 to 87 | COC(=O)[C@@H]1O[C@H]1c1ccc(OC)cc1 |
| 234 to 235 | Cc1cc(C)c2nc(C)c(NC(=O)Nc3ccc(F)cc3F)c(-c3ccccc3Cl)c2c1 |
| 239 to 241 | CC1CNc2c(cnc3cc(Cl)ccc23)O1 (stereo unspecified) |
| 244 to 246 | O=C(Nc1ccc2nc(CN3CCCC3)ccc2c1)[C@H]1CO[C@H](c2ccc(Cl)cc2)OC1 |
| 142 to 145 | CCOC(=O)CCCCC=Cc1cccc(Oc2cccc(C=O)c2)c1 |
| 174 | CCCCCc1ccc(-c2ccc(C(=O)O)cc2)cc1 |
| 253 | Cc1cc(-c2ccc(Cl)cc2)nc2c(-c3nc(-c4ccc(S(N)(=O)=O)s4)no3)cnn12 |

| melting point [°C] | SMILES |
| --- | --- |
| 334 to 335 | COc1cc(-c2ccc(C#N)cc2)cc(-c2nc3cc(C#N)ccc3[nH]2)c1O |
| 266 to 268 | CCc1noc(-c2cc3c(cn2)[nH]c2ccc(S(=O)(=O)N(C)C)cc23)n1 |
| 135 to 140 | CCCn1c(=O)c2c(n(Cc3ccccc3)c1=O)NN=C(NC(C)=O)S2 |
| 225 | NS(=O)(=O)c1ccc(CCN2C(=O)c3ccccc3C2(O)c2ccccc2)cc1 (stereo unspecified) |
| 121 to 125 | CCOC(=O)C1=C(C)NC(c2ncc[nH]2)=NC1c1ccccc1Cl (stereo unspecified) |
| 225 to 229 | O=C(CCn1cnc2c(=O)[nH]cnc21)NCCO |
| 164 to 168 | CS(=O)(=O)Nc1cccc(Nc2nc(N3CCCC3)c3nc[nH]c3n2)c1 |
| 210 to 212 | NS(=O)(=O)c1cc2c(cc1Cl)C(=O)N(Cc1cccnc1)C2=O |
| 151 to 153 | Nc1ccn(C2OC(CO)C(O)C2O[N+](=O)[O-])c(=O)n1 (stereo unspecified) |
| 110 to 111 | Cc1ccc(S(=O)(=O)Nc2ccc(Cl)cc2[N+](=O)[O-])cc1 |
| 144 to 147 | O=C(c1ccccc1)N1CCc2[nH]c3cccc(CCCO)c3c2CC1 |
| 121 | O=S(=O)(c1ccc(Cl)cc1)N1CCCC1c1ccc(F)c(F)c1 (racemic) |
| > 250 | Cc1cccc(-c2cc(C(F)(F)F)cc3c2OC(CN)C3)c1 (stereo unspecified) |
| 55 | Cc1ncccc1C#N |
| 192 to 193 | NC(=O)N(O)[C@@H]1COc2cc(OCc3ccccc3)ccc21 |
| 92 to 95 | CC(=O)C(=Cc1cccc([N+](=O)[O-])c1)C(C)=O |
| 137 to 141 | O=C1NCCN1CCN1CCC(c2noc3cc(F)ccc23)CC1 |
| 145 | COc1cc(C(=O)NS(=O)(=O)c2ccccc2)ccc1Cc1nn(C)c2ccc(NC(=O)OC3CCCC3)cc12 |
| 288 to 290 | O=C(N1CCOCC1)N1Cc2c(-c3nc4ccccc4o3)ncn2-c2ccccc21 |
| 192 to 221 | CC1Oc2ccc(CN3CCN(c4nc(-c5ccccc5)ns4)CC3)cc2NC1=O (stereo unspecified) |

| melting point [°C] | SMILES |
| --- | --- |
| 62 to 64 | Cc1nsc(CCCOc2c(C)cc(-c3noc(C(F)F)n3)cc2C)n1 |
| 87 | Cc1ccc(-c2nc(CCCCCCOC(C)(C)c3nnn[nH]3)c(C)o2)cc1 |
| 140 to 160 | O=C1C=C(c2ccccc2)CC(C(=O)O)C1 (stereo unspecified) |
| 198 to 200 | COc1ccc(-n2c3ccccc3c3cc(C=C(C#N)c4cc(C(F)(F)F)cc(C(F)(F)F)c4)ccc32)cc1 |
| 113 to 114 | Nc1c(C(=O)c2ccoc2)[nH]c2cc(Cl)ccc12 |
| 90 to 100 | CCOCCn1c(N2CCCN(CCC3(c4ccc(OC)c(OC)c4)CCN(C(=O)c4cc(OC)c(OC)c(OC)c4)C3)CC2)nc2ccccc21 (stereo unspecified) |
| 173 | CCc1c(C)oc(-c2ccc(S(C)(=O)=O)cc2)c(Oc2ccc(F)cc2F)c1=O |
| 83 to 85 | CC(C)COC1OC(CO)C(O)C(O)C1(O)N(C(=O)N(CCCl)N=O)C(C)C (stereo unspecified) |
| 105 to 106 | COCC1CN(c2ccc(C3CCCCC3)c([N+](=O)[O-])c2)C(=O)O1 (racemic) |
| 96 to 99 | Fc1ccc2nc(-c3ccccc3)cc(Cl)c2c1 |
| 143 to 144 | O=C1CCCCC1C(C[N+](=O)[O-])c1ccc(OCc2ccccc2)cc1 (racemic) |
| 181 to 182 | Cc1nc(-c2cn(CCc3ccc(F)cc3)nn2)sc1C(=O)NCc1ccccc1 |
| 135 to 136 | CCc1[nH]n(C2CCCC2)c2nc(-c3ccccc3OC)nc(=O)c1-2 |
| 295 | CC12CCC(C(=O)O)=CC1=CCC1C2CCC2(C)C(C(=O)c3ccc(O)cc3)CCC12 (stereo unspecified) |
| 164 to 166 | CCOC(=O)C(Cc1c[nH]c2c(F)cccc12)(NC=O)C(=O)OCC |
| 124 to 135 | O=C(O)c1ccc(C(F)(F)C(F)(F)F)cc1[N+](=O)[O-] |
| 65 to 68 | CCSC1CCC(=O)N1 (stereo unspecified) |
| 57 to 59 | CC(C)N(Sc1nc2ccccc2s1)C(C)C |
| 155 to 158 | N#CCOc1ccc2cc(-c3cnc(Cc4ccc5ccccc5c4)o3)ccc2c1 |
| 95 to 97 | CSc1cc(CF)nc(N)n1 |
